# Test results: US12404304B1, “Telomerase reverse transcriptase (TERT) expression enhancing compounds and methods for using the same” (Sierra Sciences, LLC, priority 2007, dated 2025)
# What was measured:
# [1] = tested on: human TERT expression (hTERT mRNA); assay: Quantitative real-time RT-PCR of hTERT mRNA expression (Ct, transcripts) in compound-treated cells; type: cell-based; conditions: quantitative real-time RT-PCR
# Excerpt: Telomerase is a ribonucleoprotein complex composed of the catalytic protein subunit (human telomerase reverse transcriptase or hTERT) and the RNA template. hTERT expression level can be measured by PCR.
# Briefly, amplification of the target sequence is monitored per PCR cycle by detecting the fluorescence signal emitted by an internal probe that is degraded by the 5′ nuclease activity of the Taq polymerase. The emission signal accumulates in each sample, and the Ct required to reach a given fluorescence threshold is determined (Ct stands for Cycle Threshold and is a measure of the number of PCR cycles that are required to amplify a target—thus, a lower Ct score means that there is more abundant hTERT mRNA). Thus, the Ct value of a sample inversely correlates to the quantity of the starting cDNA which correlates to the number of mRNA transcripts. Using the cDNA of known quantity, a standard curve can be generated and used to determine the starting amount of mRNA transcripts based on the […] of each sample.
# Quantitative real-time PCR can be done on cDNA from test compound-treated and nontreated cells by use of a ABI Prism 7900 Sequence Detection System (PE Applied Biosystems, Foster City, CA) following the Assays-on-Demand protocol (PE Applied Biosystems, Foster City, CA). Quantitative data can be analyzed using the Sequence Detection System software version 2.1 (PE Applied Biosystems).
# The following compounds were tested in assays designed to identify compounds that enhance human TERT expression.
# viable cells in culture = assay: Cell viability assay (CellTiter-Glo Luminescent Cell Viability Assay, ATP quantitation, percent of vehicle control)
# Procedure: Cell viability is determined using a homogeneous method, such as CellTiter-Glo® Luminescent Cell Viability Assay (Promega Corporation, Madison, WI.) to determine the number of viable cells in culture These assays are based on quantitation of the ATP present, which signals the presence of metabolically active cells. Luminescent values of compound treated cells are compared to that of cells treated with vehicle alone to determine the average cell viability as a percent of control.
smiles,measurement,setting,value
Cc1nc(-n2nc(C)c(CC(=O)N3CCN(c4ccc(F)cc4)CC3)c2O)sc1C [compound 1125],Average Number of hTERT Transcripts,[1],82.95
same,Average Cell Viability after 24 Hours (% DMSO),viable cells in culture,78.39 % DMSO
Cc1nc(-n2nc(C)c(CC(=O)N3CCCCC3)c2O)sc1C [compound 1126],Average Number of hTERT Transcripts,[1],75.66
same,Average Cell Viability after 24 Hours (% DMSO),viable cells in culture,95.13 % DMSO
CCOC(=O)N1CCN(C(=O)Cc2c(C)nn(-c3nc(C)c(C)s3)c2O)CC1 [compound 1127],Average Number of hTERT Transcripts,[1],20.86
same,Average Cell Viability after 24 Hours (% DMSO),viable cells in culture,92.15 % DMSO
Cc1nc(-n2nc(C)c(CC(=O)Nc3ccc(F)cc3)c2O)sc1C [compound 1128],Average Number of hTERT Transcripts,[1],42.25
same,Average Cell Viability after 24 Hours (% DMSO),viable cells in culture,86.93 % DMSO
CCCCc1c(C)nn(-c2nc(C)c(C(=O)OCC)s2)c1O [compound 1129],Average Number of hTERT Transcripts,[1],54.36
same,Average Cell Viability after 24 Hours (% DMSO),viable cells in culture,68.77 % DMSO
CCOC(=O)c1sc(-n2nc(C)c(Cc3ccc(C)cc3)c2O)nc1C [compound 1130],Average Number of hTERT Transcripts,[1],31.93
same,Average Cell Viability after 24 Hours (% DMSO),viable cells in culture,70.45 % DMSO
CCOC(=O)c1sc(-n2nc(C)c(Cc3ccc(Cl)cc3)c2O)nc1C [compound 1131],Average Number of hTERT Transcripts,[1],95.19
same,Average Cell Viability after 24 Hours (% DMSO),viable cells in culture,75.57 % DMSO
Cc1csc(-n2nc(C)c(CCC(=O)Nc3ccc(F)cc3)c2O)n1 [compound 1132],Average Number of hTERT Transcripts,[1],81.62
same,Average Cell Viability after 24 Hours (% DMSO),viable cells in culture,91.26 % DMSO
Cc1csc(-n2nc(C)c(CCC(=O)Nc3ccc(Br)cc3)c2O)n1 [compound 1133],Average Number of hTERT Transcripts,[1],108.84
same,Average Cell Viability after 24 Hours (% DMSO),viable cells in culture,77.29 % DMSO
Cc1csc(-n2nc(C)c(CCC(=O)Nc3ccc(Cl)cc3)c2O)n1 [compound 1134],Average Number of hTERT Transcripts,[1],127.97
same,Average Cell Viability after 24 Hours (% DMSO),viable cells in culture,87.25 % DMSO
CCCCNC(=O)CCc1c(C)nn(-c2nc(C)c(C)s2)c1O [compound 1135],Average Number of hTERT Transcripts,[1],23.88
same,Average Cell Viability after 24 Hours (% DMSO),viable cells in culture,88.69 % DMSO
Cc1nc(-n2nc(C)c(CCC(=O)N3CCN(c4ccc(F)cc4)CC3)c2O)sc1C [compound 1136],Average Number of hTERT Transcripts,[1],135.61
same,Average Cell Viability after 24 Hours (% DMSO),viable cells in culture,90.51 % DMSO
Cc1nc(-n2nc(C)c(CCC(=O)N3CCCCC3)c2O)sc1C [compound 1137],Average Number of hTERT Transcripts,[1],81.62
same,Average Cell Viability after 24 Hours (% DMSO),viable cells in culture,81.10 % DMSO
Cc1nc(-n2nc(C)c(CCC(=O)Nc3ccc(F)cc3)c2O)sc1C [compound 1138],Average Number of hTERT Transcripts,[1],162.66
same,Average Cell Viability after 24 Hours (% DMSO),viable cells in culture,87.23 % DMSO
Cc1nc(-n2nc(C)c(CCC(=O)Nc3ccc(Br)cc3)c2O)sc1C [compound 1139],Average Number of hTERT Transcripts,[1],19.61
same,Average Cell Viability after 24 Hours (% DMSO),viable cells in culture,74.45 % DMSO
Cc1nnc(SCc2cc(O)n(-c3nc4ccccc4s3)n2)s1 [compound 1141],Average Number of hTERT Transcripts,[1],19.39
same,Average Cell Viability after 24 Hours (% DMSO),viable cells in culture,71.38 % DMSO
Cc1ccc(Cc2c(C)nn(-c3nc4ccccc4[nH]3)c2O)cc1 [compound 1143],Average Number of hTERT Transcripts,[1],22.65
same,Average Cell Viability after 24 Hours (% DMSO),viable cells in culture,35.07 % DMSO
Cc1nn(-c2nc3ccccc3[nH]2)c(O)c1Cc1ccccc1Cl [compound 1144],Average Number of hTERT Transcripts,[1],54.47
same,Average Cell Viability after 24 Hours (% DMSO),viable cells in culture,40.68 % DMSO
Cc1nn2c(=O)c(Cc3ccccc3)c(C)[nH]c2c1-c1ccc(Cl)cc1 [compound 1145],Average Number of hTERT Transcripts,[1],76.07
same,Average Cell Viability after 24 Hours (% DMSO),viable cells in culture,63.03 % DMSO
Cc1[nH]c2c(-c3ccc(Cl)cc3)cnn2c(=O)c1Cc1ccccc1 [compound 1146],Average Number of hTERT Transcripts,[1],57.84
same,Average Cell Viability after 24 Hours (% DMSO),viable cells in culture,63.23 % DMSO
Cc1[nH]c2c(-c3cccc(Br)c3)cnn2c(=O)c1Cc1ccccc1 [compound 1147],Average Number of hTERT Transcripts,[1],29.83
same,Average Cell Viability after 24 Hours (% DMSO),viable cells in culture,61.72 % DMSO
O=c1cc(Cc2ccccc2)[nH]c2c(-c3ccccc3)c(-c3ccccc3)nn12 [compound 1148],Average Number of hTERT Transcripts,[1],108.34
same,Average Cell Viability after 24 Hours (% DMSO),viable cells in culture,88.31 % DMSO
O=c1cc(Cc2ccccc2)[nH]c2c(-c3ccc(Cl)cc3)cnn12 [compound 1149],Average Number of hTERT Transcripts,[1],91.14
same,Average Cell Viability after 24 Hours (% DMSO),viable cells in culture,87.19 % DMSO
COc1ccc(-c2cc(=O)n3nc(C)c(-c4ccccc4)c3[nH]2)cc1 [compound 1150],Average Number of hTERT Transcripts,[1],80.37
same,Average Cell Viability after 24 Hours (% DMSO),viable cells in culture,86.82 % DMSO
Cc1ccc(-c2cc(=O)n3nc(C)c(-c4ccccc4)c3[nH]2)cc1 [compound 1151],Average Number of hTERT Transcripts,[1],164.58
same,Average Cell Viability after 24 Hours (% DMSO),viable cells in culture,77.04 % DMSO
Cc1nn2c(=O)cc(-c3ccccc3)[nH]c2c1-c1ccc(F)cc1 [compound 1152],Average Number of hTERT Transcripts,[1],64.86
same,Average Cell Viability after 24 Hours (% DMSO),viable cells in culture,73.68 % DMSO
Cc1nn2c(=O)c(Cl)c(C)[nH]c2c1-c1ccccc1 [compound 1153],Average Number of hTERT Transcripts,[1],5.84
same,Average Cell Viability after 24 Hours (% DMSO),viable cells in culture,88.39 % DMSO
COc1ccc(-c2cc(=O)n3nc(C)c(-c4ccc(F)cc4)c3[nH]2)cc1 [compound 1154],Average Number of hTERT Transcripts,[1],48.37
same,Average Cell Viability after 24 Hours (% DMSO),viable cells in culture,69.15 % DMSO
CCCc1c(C)[nH]c2c(-c3ccc(Cl)cc3)c(C)nn2c1=O [compound 1155],Average Number of hTERT Transcripts,[1],15.30
same,Average Cell Viability after 24 Hours (% DMSO),viable cells in culture,80.19 % DMSO
Cc1nn2c(=O)cc(-c3ccc(Cl)cc3)[nH]c2c1-c1ccccc1 [compound 1156],Average Number of hTERT Transcripts,[1],45.97
same,Average Cell Viability after 24 Hours (% DMSO),viable cells in culture,61.07 % DMSO
Cc1cc(=O)n2ncc(-c3ccc(Cl)cc3)c2[nH]1 [compound 1157],Average Number of hTERT Transcripts,[1],16.13
same,Average Cell Viability after 24 Hours (% DMSO),viable cells in culture,71.08 % DMSO
CCCc1cc(=O)n2ncc(-c3ccc(Cl)cc3)c2[nH]1 [compound 1158],Average Number of hTERT Transcripts,[1],71.35
same,Average Cell Viability after 24 Hours (% DMSO),viable cells in culture,62.57 % DMSO
O=c1c2c([nH]c3c(-c4ccc(Cl)cc4)cnn13)CCCC2 [compound 1159],Average Number of hTERT Transcripts,[1],5.22
same,Average Cell Viability after 24 Hours (% DMSO),viable cells in culture,55.24 % DMSO
O=c1c2c([nH]c3c(-c4ccc(Cl)cc4)cnn13)CCC2 [compound 1160],Average Number of hTERT Transcripts,[1],54.13
same,Average Cell Viability after 24 Hours (% DMSO),viable cells in culture,59.19 % DMSO
O=c1c(-c2ccccc2)c[nH]c2c(-c3ccccc3)cnn12 [compound 1161],Average Number of hTERT Transcripts,[1],139.82
same,Average Cell Viability after 24 Hours (% DMSO),viable cells in culture,62.93 % DMSO
Cc1nn2c(=O)cc(-c3ccccc3)[nH]c2c1-c1ccccc1 [compound 1162],Average Number of hTERT Transcripts,[1],113.08
same,Average Cell Viability after 24 Hours (% DMSO),viable cells in culture,65.07 % DMSO
Cc1nn2c(=O)cc(CSc3nnnn3-c3ccccc3)[nH]c2c1-c1ccc(Cl)cc1 [compound 1163],Average Number of hTERT Transcripts,[1],68.40
same,Average Cell Viability after 24 Hours (% DMSO),viable cells in culture,70.88 % DMSO
Cc1nn2c(=O)cc(-c3ccccc3Cl)[nH]c2c1-c1ccccc1 [compound 1164],Average Number of hTERT Transcripts,[1],56.66
same,Average Cell Viability after 24 Hours (% DMSO),viable cells in culture,71.68 % DMSO
Cc1nn2c(=O)c(Cc3ccc(Br)cc3)c(C)[nH]c2c1-c1ccccc1 [compound 1165],Average Number of hTERT Transcripts,[1],132.12
same,Average Cell Viability after 24 Hours (% DMSO),viable cells in culture,55.73 % DMSO
Cc1nn2c(=O)c(Cc3cccc(Cl)c3)c(C)[nH]c2c1-c1ccccc1 [compound 1166],Average Number of hTERT Transcripts,[1],152.34
same,Average Cell Viability after 24 Hours (% DMSO),viable cells in culture,77.99 % DMSO
CCCCc1c(C)[nH]c2c(-c3ccc(Cl)cc3)c(C)nn2c1=O [compound 1167],Average Number of hTERT Transcripts,[1],66.71
same,Average Cell Viability after 24 Hours (% DMSO),viable cells in culture,97.27 % DMSO
Cc1ccc(SCc2cc(=O)n3nc(C)c(-c4ccc(F)cc4)c3[nH]2)cc1 [compound 1168],Average Number of hTERT Transcripts,[1],79.80
same,Average Cell Viability after 24 Hours (% DMSO),viable cells in culture,63.67 % DMSO
Cc1nn2c(=O)cc(-c3ccc(F)cc3)[nH]c2c1-c1ccccc1 [compound 1169],Average Number of hTERT Transcripts,[1],122.92
same,Average Cell Viability after 24 Hours (% DMSO),viable cells in culture,56.42 % DMSO
COc1ccc2sc(Nc3nc(C)n(-c4ccccc4)c(=O)n3)nc2c1 [compound 1170],Average Number of hTERT Transcripts,[1],102.53
same,Average Cell Viability after 24 Hours (% DMSO),viable cells in culture,36.74 % DMSO
O=C(Nc1nc(-c2ccccn2)cs1)c1ccc(Br)s1 [compound 1171],Average Number of hTERT Transcripts,[1],22.66
same,Average Cell Viability after 24 Hours (% DMSO),viable cells in culture,56.61 % DMSO
COc1cc(OC)cc(C(=O)Nc2nc(-c3ccccn3)cs2)c1 [compound 1172],Average Number of hTERT Transcripts,[1],28.72
same,Average Cell Viability after 24 Hours (% DMSO),viable cells in culture,88.81 % DMSO
O=C(Nc1nc(-c2ccccn2)cs1)c1cccc(S(=O)(=O)N2CCOCC2)c1 [compound 1173],Average Number of hTERT Transcripts,[1],43.63
same,Average Cell Viability after 24 Hours (% DMSO),viable cells in culture,86.99 % DMSO
O=C(Nc1nc(-c2ccccn2)cs1)c1cccc(S(=O)(=O)N2CCCCC2)c1 [compound 1174],Average Number of hTERT Transcripts,[1],12.12
same,Average Cell Viability after 24 Hours (% DMSO),viable cells in culture,73.06 % DMSO
CCCN(CCC)S(=O)(=O)c1cccc(C(=O)Nc2nc(-c3ccccn3)cs2)c1 [compound 1175],Average Number of hTERT Transcripts,[1],29.54
same,Average Cell Viability after 24 Hours (% DMSO),viable cells in culture,74.43 % DMSO
COc1ccc(-c2nnc(NC(=O)c3ccc(Cl)cc3)o2)cc1 [compound 1178],Average Number of hTERT Transcripts,[1],63.78
same,Average Cell Viability after 24 Hours (% DMSO),viable cells in culture,83.07 % DMSO
